This is an account of results in patent US4908351A, “Antibiotic a 42867 derivative” (Merrell Dow Pharmaceuticals Inc., priority 1988, dated 1990).

Holding throughout (assay): MIC, broth dilution test
What all share (type): cell-based
(In broth dilution the organism is exposed to a series of concentrations in liquid medium.)

One assay has as its system Staph. aureus L 165. To be noted: Isosensitest broth, 24 h, 37° C. As to the method: Culture media and growth conditions for MIC (minimal inhibitory concentration) determinations were as follows: Isosensitest broth (Oxoid), 24 h, for staphylococci, Strep. faecalis and Gram-negative bacteria (Escherichia coli); Todd-Hewitt broth (Difco), 24 h for other streptococcal species; GC base broth (Difco) +1% Isovitalex (BBL), 48 h, CO2 -enriched atmosphere for Neisseria gonorrhoeae; Brain Heart broth (Difco) +1% Supplement C (Difco), 48 h for Haemophilus influenzae. PPLO broth with supplements as in R. T. Evans and D. Taylor-Robinson (J. Antimicrob. Chemother. 4, 57), 24 h for U. urealyticum. Incubation was at 37° C. […] The minimal inhibitory concentrations (MIC, microgram/ml) for some microorganisms are reported below in Table I.

For assay [1], the system named is Escherichia coli L 47 SKF 12140. To be noted: Isosensitest broth, 24 h, 37° C. The protocol:
(§1) Culture media and growth conditions for MIC (minimal inhibitory concentration) determinations were as follows: Isosensitest broth (Oxoid), 24 h, for staphylococci, Strep. faecalis and Gram-negative bacteria (Escherichia coli); Todd-Hewitt broth (Difco), 24 h for other streptococcal species; GC base broth (Difco) +1% Isovitalex (BBL), 48 h, CO2 -enriched atmosphere for Neisseria gonorrhoeae; Brain Heart broth (Difco) +1% Supplement C (Difco), 48 h for Haemophilus influenzae. PPLO broth with supplements as in R. T. Evans and D. Taylor-Robinson (J. Antimicrob. Chemother. 4, 57), 24 h for U. urealyticum. Incubation was at 37° C. Inocula were as follows: about 10^4 color-changing units/ml for U. urealyticum; about 10^4 -10^5 colony-forming units/ml for other broth dilution MICs. The minimal inhibitory concentrations (MIC, microgram/ml) for some microorganisms are reported below in Table I.

Assay [2] concerns Strep. pneumoniae L 44 UC 41. To be noted: Todd-Hewitt broth, 24 h, 37° C. The protocol:
as §1

In assay [3] the test system is Neisseria gonorrhoeae L 997 ISM 68/126. To be noted: GC base broth +1% Isovitalex, 48 h, CO2-enriched atmosphere, 37° C. As to the method: as §1
Assay [4] deals with Strep. mitis L 796 (clinical isolate). To be noted: Todd-Hewitt broth, 24 h, 37° C. As to the method: as §1
Assay [5] has as its system Staph. haemolyticus clin isolate. To be noted: Isosensitest broth, 24 h, 37° C. As to the method: as §1
Assay [6] relates to Staph. epidermidis L 147 ATCC 12228 (coagulase negative). To be noted: Isosensitest broth, 24 h, 37° C. As to the method: as §1
Assay [7] relates to Strep. faecalis L 149 ATCC 7080. To be noted: Isosensitest broth, 24 h, 37° C. The protocol: as §1
In assay [8] the test system is Haemophilus influenzae type b L 970 ATCC 19418. To be noted: Brain Heart broth +1% Supplement C, 48 h, 37° C. The protocol:
as §1

The subject of assay [9] is Ureaplasma urealyticum 1479 clin. isolate. To be noted: PPLO broth with supplements, 24 h, about 10^4 color-changing units/ml, 37° C. The protocol: as §1
The subject of assay [10] is Strep. pyogenes L 49 C 203. To be noted: Todd-Hewitt broth, 24 h, 37° C. As to the method: as §1

As for antibiotic A 42867 pseudoaglycon, the M.I.C. with Staph. aureus L 165 (Staph. aureus 10^6 cfu/ml) is recorded as 1 microgram/ml; in the assay with Staph. aureus L 165 (Staph. aureus 30% bovine serum), 2 microgram/ml; with Staph. aureus L 165 (Staph. aureus L 165, 10^4 cfu/ml), 1 microgram/ml; in [1], above 128 microgram/ml; in [2] it was 1 microgram/ml; in [3], 64 microgram/ml. The M.I.C. in assay [4] is 0.5 microgram/ml; in [5] it was 2 microgram/ml; in [6], 2 microgram/ml; in [7], 2 microgram/ml; in [8], above 128 microgram/ml; in [9], above 128 microgram/ml. Further, in [10], the M.I.C. stood at 0.5 microgram/ml.
